From US10703735B2, “4-phenyl-coumarin derivatives, processes for their preparation and uses thereof for the treatment of cancer” (Lead Discovery Center GmbH, priority 2018, dated 2020)

Key:
[1] = test system: mitochondrial transcription (7S RNA) in HeLa cells; assay: Quantitative real time-PCR assay of inhibition of mitochondrial transcription (7S RNA) in HeLa cells; format: cell-based; conditions: Homo sapiens, 4 h incubation, Example 5, read-out: cellular qPCR assay IMT (IC-50)
Procedure: Quantitative real-time PCR (qRT-PCR), based on the TaqMan™ (Thermo Fisher Scientific, Waltham Mass.) technology, was carried out essentially as described in (Heid et al. 1996). HeLa cells were plated one day before compound treatment in RPMI medium supplemented with 10% Fetal Calf Serum and 2 mM L-glutamine. Cells were incubated with dilution series of compounds or vehicle (DMSO) for 4 h, prior to harvest and extraction of the RNA using the RNeasy Mini Kit (Qiagen, Hilden D), according to the manufacturer's instructions. RNA concentrations were measured spectroscopically, using a NanoDrop-2000 (Thermo Fisher Scientific, Waltham Mass.) and normalized prior to cDNA synthesis, using a ‘High-Capacity cDNA Reverse Transcription Kit’ (Thermo Fisher Scientific, Waltham Mass.). qRT-PCR was carried out using the ‘TaqMan Fast Advance Master Mix’ (Thermo Fisher Scientific, Waltham Mass.) on a 7500 Fast Real-Time PCR machine (Applied Biosystems, Foster City Calif.)
For these measurements, three genes were used to compare the effect of the scrutinized compounds in relation to their concentration. The POLRMT-gene was used to detect potential influences on nuclear transcription. Mitochondrial transcription in vivo was monitored by measurements 7S RNA. The TBP (TATA-box binding protein) gene was employed as the control (housekeeping gene) during qRT-PCR. The short-lived mitochondrial 7S RNA, which is not post-transcriptionally stabilized, allowed us to monitor rapid changes in mitochondrial transcription activity following compound addition. Biological triplicates were analyzed using the comparative CT Method (ΔΔCt) method (Bubner et al. 2004) and reported as Rq % values (Rq=Relative quantification=2-ΔΔCt).

[2] = target: mitochondrial RNA-polymerase (POLRMT) (Mus musculus, UniProt Q8BKF1); assay: Homogeneous TR-FRET assay for mitochondrial transcription activity; format: biochemical; conditions: homogeneous TR-FRET assay according to Example 4; read-out: mitochondrial transcription activity (IC-50)
Method in brief: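 Mouse POLRMT with TFAM and TFB2M transcribes linearized pUC-LSP template after 10 min compound preincubation (10 μM final or dilution series), started with 500 μM each nucleotide, 2 h at RT. EDTA/high-salt stop; RNA product detected by hybridized Eu/ATTO647N probe pair, TR-FRET read at 665 nm (340 nm excitation).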

mitochondrial RNA-polymerase (POLRMT), sequence (Q8BKF1 42-1207): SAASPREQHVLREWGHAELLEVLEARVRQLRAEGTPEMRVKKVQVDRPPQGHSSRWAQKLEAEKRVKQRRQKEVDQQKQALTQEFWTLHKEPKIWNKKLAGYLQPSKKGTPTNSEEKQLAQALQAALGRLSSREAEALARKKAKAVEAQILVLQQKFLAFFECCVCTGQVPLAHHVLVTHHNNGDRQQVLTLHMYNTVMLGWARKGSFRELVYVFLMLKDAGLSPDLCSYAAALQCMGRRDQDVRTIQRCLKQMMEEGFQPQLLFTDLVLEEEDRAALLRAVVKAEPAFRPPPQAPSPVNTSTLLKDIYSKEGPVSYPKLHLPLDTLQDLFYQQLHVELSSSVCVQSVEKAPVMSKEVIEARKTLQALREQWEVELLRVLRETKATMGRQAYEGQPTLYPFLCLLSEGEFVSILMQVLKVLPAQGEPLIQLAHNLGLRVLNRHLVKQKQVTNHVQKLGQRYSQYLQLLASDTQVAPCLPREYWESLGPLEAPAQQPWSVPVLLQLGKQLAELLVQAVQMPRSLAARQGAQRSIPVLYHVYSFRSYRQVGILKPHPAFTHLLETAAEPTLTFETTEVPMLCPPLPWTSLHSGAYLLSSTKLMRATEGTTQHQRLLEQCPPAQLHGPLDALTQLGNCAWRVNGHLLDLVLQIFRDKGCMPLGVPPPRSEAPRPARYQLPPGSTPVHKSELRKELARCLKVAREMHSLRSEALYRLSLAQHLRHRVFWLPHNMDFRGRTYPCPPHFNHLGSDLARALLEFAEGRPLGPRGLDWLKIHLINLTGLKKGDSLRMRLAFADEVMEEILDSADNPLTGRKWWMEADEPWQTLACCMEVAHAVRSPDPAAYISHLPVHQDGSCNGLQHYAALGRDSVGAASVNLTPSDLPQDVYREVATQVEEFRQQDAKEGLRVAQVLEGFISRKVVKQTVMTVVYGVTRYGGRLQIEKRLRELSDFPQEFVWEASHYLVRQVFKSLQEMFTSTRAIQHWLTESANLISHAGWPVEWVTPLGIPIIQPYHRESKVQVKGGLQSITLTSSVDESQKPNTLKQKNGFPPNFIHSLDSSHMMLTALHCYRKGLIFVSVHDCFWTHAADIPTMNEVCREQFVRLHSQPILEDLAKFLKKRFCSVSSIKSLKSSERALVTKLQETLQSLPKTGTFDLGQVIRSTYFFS

| IC50 [1] [nM] | IC50 [2] [nM] | Compound |
| --- | --- | --- |
| 10 to 50 | 100 to 1000 | CCOC(=O)C(C)(C)Oc1ccc2c(-c3ccccc3)cc(=O)oc2c1 [Compound 32, ethyl 2-methyl-2-(2-oxo-4-phenyl-chromen-7-yl)oxy-propanoate] |
| < 10 | 100 to 1000 | CCOC(=O)[C@@H](C)Oc1ccc2c(-c3ccccc3)cc(=O)oc2c1 [Compound 33, ethyl (2R)-2-(2-oxo-4-phenyl-chromen-7-yl)oxypropanoate] |
| 10 to 50 | 100 to 1000 | C[C@@H](Oc1ccc2c(-c3ccccc3)cc(=O)oc2c1)C(=O)N(C)C [Compound 34, (2R)-N,N-dimethyl-2-(2-oxo-4-phenyl-chromen-7-yl)oxy-propanamide] |
| 50 to 500 | 100 to 1000 | CCOC(=O)C(C)Oc1ccc2c(-c3ccccc3)cc(=O)oc2c1 (stereo not drawn) [Compound 52, ethyl 2-(2-oxo-4-phenyl-chromen-7-yl)oxypropanoate] |
| < 10 | 20 to 100 | CC(C)OC(=O)C(C)Oc1ccc2c(-c3ccccc3)cc(=O)oc2c1 (stereo not drawn) [Compound 53, isopropyl 2-(2-oxo-4-phenyl-chromen-7-yl)oxypropanoate] |
| 500 to 10000 | 1000 to 10000 | CCOC(=O)C(C)Oc1ccc2c(-c3ccc(OC)cc3)cc(=O)oc2c1 (stereo not drawn) [Compound 65, ethyl 2-[4-(4-methoxyphenyl)-2-oxo-chromen-7-yl]oxypropanoate] |
